According to patent publication US20230078702A1, “USE OF MITOXANTRONE HYDROCHLORIDE LIPOSOME FOR TREATING BREAST CANCER” (CSPC ZHONGQI PHARMACEUTICAL TECHNOLOGY (SHIJIAZHUANG) CO., …, priority 2020, published 2023):
Where a name gives a salt, the structure may show the parent alone.

Key:
[1] = test system: patients with advanced recurrent or metastatic breast cancer; assay: Efficacy evaluation (RECIST 1.1) in randomized, open-labeled, active controlled clinical study; type: in vivo, human; design: disease control rate (PR+SD): concentration or dose not given beside the values
Experimental: A tumor assessment was performed at baseline.
During the treatment period, the efficacy evaluation was performed once every two cycles; in addition, when the efficacy evaluation result was PR or CR, the efficacy should be radiologically confirmed after 4 weeks. After the completion of the treatment, the evaluation was performed every 3 months until disease progression. Tumor evaluation was performed according to RECIST 1.1 criteria.
Primary efficacy endpoint: objective response rate (ORR), referring to the ratio of subjects reaching PR and CR.
Secondary efficacy endpoint: progression-free survival (PFS), referring to the time from the start of randomization to disease progression or death.

[2] = test system: patients with advanced recurrent or metastatic breast cancer; conditions: human, in vivo
Experimental: The study is a randomized, open-labeled, active controlled, single center study to evaluate the safety and efficacy of the mitoxantrone hydrochloride liposome injection in patients with advanced recurrent or metastatic breast cancer.
Investigational product: mitoxantrone hydrochloride liposome injection (PLM60 (10 mg/10 mL/vial)) was added to 250 mL of 5% glucose at a dose of 20 mg/m^2 and was administered intravenously over 1 h.
Reference product: mitoxantrone hydrochloride injection (5 mg/5 mL/vial, manufactured by Sichuan Sunnyhope Pharmaceutical, Inc., supplied by CSPC ZHONGQI Pharmaceutical Technology (Shijiazhuang) Co., Ltd., Lot No. 1501201) was added to 100 mL of 5% glucose injection at a dose of 14 mg/m^2 and was administered intravenously over 30 min.
The safety assessment indicators included: vital signs, adverse events, laboratory tests (complete blood test, routine urinalysis, blood biochemistry, electrocardiogram, echocardiogram), and early withdrawal. Safety assessment criteria: NCI-CTC 4.0.
For the drug mitoxantrone, the most serious adverse event is cardiotoxicity. Clinical studies and practical observations have shown that the cardiotoxicity caused by anthracyclines are mainly progressive and irreversible. Especially anthracyclines can easily cause cardiac damage at first use. Cardiotoxicity is a common concern for clinicians since it is a long-term cumulative dose-limiting toxicity. The incidence of increased troponin T and the incidence of increased brain natriuretic peptide were used as indices for examining cardiotoxicity in this trial. The change of the cardiac troponin T level can reflect myocardium damage with high sensitivity; brain natriuretic peptide is a polypeptide hormone secreted by cardiomyocytes in the heart ventricles in response to stretching caused by increased ventricular blood volume and increased ventricular pressure.

O=C1c2c(O)ccc(O)c2C(=O)c2c(NCCNCCO)ccc(NCCNCCO)c21 [Control group, mitoxantrone hydrochloride]
Progression-free survival rate ([1]; 3 months, FAS (N = 60)): 26.7%
Progression-free survival rate ([1]; 3 months, PPS (N = 58)): 28.6
Progression-free survival rate ([1]; 6 months, FAS (N = 60), hydrochloride): 20.0%
Progression-free survival rate ([1]; 6 months, FAS (N = 60), listed as control group, hydrochloride): 20%
Progression-free survival rate ([1]; 6 months, PPS (N = 58)): 21.4
Progression-free survival rate ([1]; 12 months, FAS (N = 60)): 0%
Progression-free survival rate ([1]; 12 months, PPS (N = 58)): 0
disease control rate (PR+SD) ([1]; 30 subjects per group): 30%
objective response rate (ORR) ([1]; 30 subjects per group): 6.7%
Best overall response NA, number of subjects ([1]; FAS (N = 60)): 2
Best overall response NA, percent of subjects ([1]; FAS (N = 60)): (6.7%)
Best overall response PD, number of subjects ([1]; FAS (N = 60)): 19
Best overall response PD, percent of subjects ([1]; FAS (N = 60)): (63.3%)
Best overall response PR, percent of subjects ([1]; FAS (N = 60)): (6.7%)
Best overall response SD, number of subjects ([1]; FAS (N = 60)): 7
Best overall response SD, percent of subjects ([1]; FAS (N = 60)): (23.3%)
Median PFS ([1]; FAS (N = 60)): 1.86 month
Number of events (%) (PFS), percent ([1]; FAS (N = 60)): 83.3%
Number of events (PFS) ([1]; FAS (N = 60)): 25
Best overall response PR, number of subjects ([1]; FAS (N = 60), liposome 20 mg/m^2 or injection 14 mg/m^2 i.v. once every 4 weeks): 2
Best overall response NA, number of subjects ([1]; PPS (N = 58)): 0
Best overall response NA, percent of subjects ([1]; PPS (N = 58)): (0.0) %
Best overall response PD, number of subjects ([1]; PPS (N = 58)): 19
Best overall response PD, percent of subjects ([1]; PPS (N = 58)): (67.9%)
Best overall response PR, number of subjects ([1]; PPS (N = 58)): 2
Best overall response PR, percent of subjects ([1]; PPS (N = 58)): (7.1%)
Best overall response SD, number of subjects ([1]; PPS (N = 58)): 7
Best overall response SD, percent of subjects ([1]; PPS (N = 58)): (28.6%)
Median PFS ([1]; PPS (N = 58)): 1.86 month
Number of events (%) (PFS), percent ([1]; PPS (N = 58)): 82.14%
Number of events (PFS) ([1]; PPS (N = 58)): 23
Anemia, number of subjects [2]: 14
Decreased neutrophil count, number of subjects [2]: 29
Decreased platelet count, number of subjects [2]: 16
Decreased white blood cell count, number of subjects [2]: 29
Fever, number of subjects [2]: 3
Incidence of fever [2]: (10.0%)
Incidence of increased alanine aminotransferase [2]: (26.70%)
Incidence of increased blood bilirubin [2]: (20.00%)
Incidence of skin hyperpigmentation [2]: 3.3%
Increased alanine aminotransferase, number of subjects [2]: 8
Increased aspartate aminotransferase, number of subjects [2]: 16
Increased blood bilirubin, number of subjects [2]: 6
Increased brain natriuretic peptide, number of subjects [2]: 10
Increased conjugated bilirubin, number of subjects [2]: 17
Increased troponin T, number of subjects [2]: 11
overall incidence rate of adverse events [2]: 100%
